Measurements published in patent publication US10670605B2, “Cysteine reactive probes and uses thereof” (The Scripps Research Institute, priority 2015, dated 2020).
“And” between values parts separate entries of the source, which are not always exact repeats. Equal values may be shown once.

What was measured:
Assay in all cases: Competitive isoTOP-ABPP, cell lysates
Type in all cases: binding
[1] = biological target: DCUN1D1 C115 (Q96GG9) (Homo sapiens, UniProt Q96GG9); conditions: for R value (DMSO/fragment) / isoTOP-ABPP ratio, Q96GG9_C115: 500 μM, invitro, ramos; for isoTOP-ABPP reactivity profile ratio, Q96GG9_C115 / isoTOP-ABPP reactivity ratio, Q96GG9_C115: 500 μm
[2] = biological target: T1, PDE12 C108 (Q6L8Q7) (Homo sapiens, UniProt Q6L8Q7); conditions: for R value (DMSO/fragment) / isoTOP-ABPP ratio, Q6L8Q7_C108: 500 μM; for isoTOP-ABPP reactivity profile ratio, Q6L8Q7_C108 / isoTOP-ABPP reactivity ratio, Q6L8Q7_C108: 500 μm
T1 sequence (Q6L8Q7 43-609): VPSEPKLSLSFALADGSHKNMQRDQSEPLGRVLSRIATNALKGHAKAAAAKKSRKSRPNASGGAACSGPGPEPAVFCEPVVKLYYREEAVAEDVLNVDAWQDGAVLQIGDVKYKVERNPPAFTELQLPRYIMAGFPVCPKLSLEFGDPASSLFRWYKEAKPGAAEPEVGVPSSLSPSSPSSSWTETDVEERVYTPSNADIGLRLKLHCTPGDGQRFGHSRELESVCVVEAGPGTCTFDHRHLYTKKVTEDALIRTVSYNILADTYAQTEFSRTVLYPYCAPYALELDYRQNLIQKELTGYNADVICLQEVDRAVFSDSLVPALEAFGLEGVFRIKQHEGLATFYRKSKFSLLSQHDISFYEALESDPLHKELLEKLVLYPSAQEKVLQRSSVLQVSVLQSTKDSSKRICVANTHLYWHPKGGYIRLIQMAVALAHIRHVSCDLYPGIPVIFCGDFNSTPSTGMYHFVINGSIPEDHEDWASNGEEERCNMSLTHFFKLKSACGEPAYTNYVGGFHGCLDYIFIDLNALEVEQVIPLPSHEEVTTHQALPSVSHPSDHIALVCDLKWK

[3] = biological target: T2, IDH2 C308 (P48735) (Homo sapiens, UniProt P48735); conditions: for R value (DMSO/fragment) / isoTOP-ABPP ratio, P48735_C308: 500 μM; for R value (DMSO/fragment): in vitro, MDA-MB-231; for isoTOP-ABPP reactivity profile ratio, P48735_C308 / isoTOP-ABPP reactivity ratio, P48735_C308: 500 μm; for isoTOP-ABPP ratio, P48735_C308: invitro, 231
T2 sequence (P48735 40-452): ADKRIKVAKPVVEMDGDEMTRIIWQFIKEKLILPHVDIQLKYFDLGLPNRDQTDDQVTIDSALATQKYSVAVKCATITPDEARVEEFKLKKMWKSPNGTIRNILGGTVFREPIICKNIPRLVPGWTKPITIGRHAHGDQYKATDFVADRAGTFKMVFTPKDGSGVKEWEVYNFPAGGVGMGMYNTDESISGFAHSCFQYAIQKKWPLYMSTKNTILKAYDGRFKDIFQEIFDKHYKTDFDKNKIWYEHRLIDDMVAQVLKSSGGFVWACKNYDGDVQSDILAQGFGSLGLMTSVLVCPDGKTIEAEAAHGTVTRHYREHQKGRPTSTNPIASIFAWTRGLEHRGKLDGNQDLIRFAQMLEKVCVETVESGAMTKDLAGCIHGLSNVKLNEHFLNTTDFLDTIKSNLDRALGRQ

[4] = biological target: T3, MGMT C150 (P16455) (Homo sapiens, UniProt P16455); conditions: for R value (DMSO/fragment) / isoTOP-ABPP ratio, P16455_C150: 500 μM, invitro, ramos; for isoTOP-ABPP reactivity profile ratio, P16455_C150 / isoTOP-ABPP reactivity ratio, P16455_C150: 500 μm, in-vitro_ramos
T3 sequence (P16455 1-207): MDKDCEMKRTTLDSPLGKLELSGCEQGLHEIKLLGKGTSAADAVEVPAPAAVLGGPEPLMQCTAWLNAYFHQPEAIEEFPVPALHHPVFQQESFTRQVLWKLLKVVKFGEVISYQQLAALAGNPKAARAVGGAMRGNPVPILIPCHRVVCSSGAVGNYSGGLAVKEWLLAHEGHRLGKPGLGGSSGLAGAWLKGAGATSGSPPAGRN

[5] = biological target: XPO1 C34 (O14980) (Homo sapiens, UniProt O14980); conditions: for R value (DMSO/fragment) / isoTOP-ABPP ratio, O14980_C34: 500 μM; for isoTOP-ABPP reactivity profile ratio, O14980_C34 / isoTOP-ABPP reactivity ratio, O14980_C34: 500 μm
[6] = biological target: IDH1 C269 (O75874) (Homo sapiens, UniProt O75874); conditions: for isoTOP-ABPP reactivity ratio, O75874_C269: 500 μm; for isoTOP-ABPP ratio (reactivity profile), O75874_C269: 500 μm in-vitro ramos
Sequence of IDH1 C269 (O75874) (O75874 whole entry): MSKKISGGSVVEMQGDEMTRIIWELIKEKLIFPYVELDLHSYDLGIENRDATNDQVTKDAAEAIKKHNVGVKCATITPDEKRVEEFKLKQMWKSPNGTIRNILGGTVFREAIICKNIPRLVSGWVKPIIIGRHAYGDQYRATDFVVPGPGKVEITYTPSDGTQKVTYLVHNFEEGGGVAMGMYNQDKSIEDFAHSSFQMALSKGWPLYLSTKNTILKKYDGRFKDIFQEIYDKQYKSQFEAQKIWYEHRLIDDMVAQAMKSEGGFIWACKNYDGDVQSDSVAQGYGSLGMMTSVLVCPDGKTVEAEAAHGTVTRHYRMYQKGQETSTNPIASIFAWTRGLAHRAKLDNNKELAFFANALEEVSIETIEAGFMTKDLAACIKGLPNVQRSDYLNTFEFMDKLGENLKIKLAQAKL

Sequence of XPO1 C34 (O14980) (O14980 whole entry, the tested form may be a part): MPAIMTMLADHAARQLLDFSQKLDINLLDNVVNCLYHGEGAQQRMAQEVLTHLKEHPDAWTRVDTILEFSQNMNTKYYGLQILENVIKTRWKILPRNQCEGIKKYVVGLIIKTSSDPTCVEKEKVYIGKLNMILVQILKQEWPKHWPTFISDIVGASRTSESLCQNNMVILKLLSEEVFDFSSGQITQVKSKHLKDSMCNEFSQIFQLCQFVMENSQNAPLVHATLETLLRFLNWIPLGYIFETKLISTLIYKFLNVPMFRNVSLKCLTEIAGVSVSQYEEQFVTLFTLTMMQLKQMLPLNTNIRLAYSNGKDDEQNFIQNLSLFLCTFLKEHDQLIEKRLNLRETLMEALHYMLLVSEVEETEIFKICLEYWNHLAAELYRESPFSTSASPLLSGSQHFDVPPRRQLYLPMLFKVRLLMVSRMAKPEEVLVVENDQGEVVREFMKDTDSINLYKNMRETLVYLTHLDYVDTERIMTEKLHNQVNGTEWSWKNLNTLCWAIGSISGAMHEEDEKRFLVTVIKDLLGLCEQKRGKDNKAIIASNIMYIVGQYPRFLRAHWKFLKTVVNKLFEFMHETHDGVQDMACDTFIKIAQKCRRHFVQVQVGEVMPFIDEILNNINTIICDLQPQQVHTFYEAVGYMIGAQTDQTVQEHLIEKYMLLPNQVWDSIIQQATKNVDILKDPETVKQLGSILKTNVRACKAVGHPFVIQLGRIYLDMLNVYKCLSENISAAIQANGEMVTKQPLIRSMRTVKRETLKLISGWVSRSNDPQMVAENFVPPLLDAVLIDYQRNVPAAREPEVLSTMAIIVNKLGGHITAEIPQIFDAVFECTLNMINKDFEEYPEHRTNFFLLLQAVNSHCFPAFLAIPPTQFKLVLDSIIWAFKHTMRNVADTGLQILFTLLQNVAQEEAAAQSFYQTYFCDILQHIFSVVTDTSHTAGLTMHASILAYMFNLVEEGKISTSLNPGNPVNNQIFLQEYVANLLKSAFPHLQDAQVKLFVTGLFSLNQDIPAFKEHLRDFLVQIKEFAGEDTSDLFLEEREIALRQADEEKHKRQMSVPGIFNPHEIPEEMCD
Sequence of DCUN1D1 C115 (Q96GG9) (Q96GG9 whole entry, the tested form may be a part): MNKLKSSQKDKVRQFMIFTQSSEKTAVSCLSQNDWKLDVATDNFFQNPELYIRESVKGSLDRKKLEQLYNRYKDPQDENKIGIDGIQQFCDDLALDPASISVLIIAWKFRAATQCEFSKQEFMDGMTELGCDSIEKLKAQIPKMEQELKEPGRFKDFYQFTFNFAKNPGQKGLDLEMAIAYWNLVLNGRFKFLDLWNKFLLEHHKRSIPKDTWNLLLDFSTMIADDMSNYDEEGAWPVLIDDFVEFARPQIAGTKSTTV

CC(C)CCOCCNC(=O)CCl [compound 27]
isoTOP-ABPP ratio (reactivity profile), Q96GG9_C115 ([1]; 500 μm in-vitro ramos): 1.0 | isoTOP-ABPP ratio (reactivity profile), Q96GG9_C115 ([1]; 500 μm in-vitro ramos_231): 1.1 | isoTOP-ABPP ratio (reactivity profile), Q6L8Q7_C108 ([2]; 500 μm in-vitro ramos): 1.3 | isoTOP-ABPP ratio (reactivity profile), Q6L8Q7_C108 ([2]; 500 μm in-vitro ramos_231): 0.5 | isoTOP-ABPP ratio (reactivity profile), P48735_C308 ([3]; 500 μm in-vitro ramos_231): 1.9 and 1.0 | isoTOP-ABPP ratio (reactivity profile), P16455_C150 ([4]; 500 μm in-vitro ramos): 2.3 | isoTOP-ABPP ratio (reactivity profile), P16455_C150 ([4]; 500 μm in-vitro ramos_231): 1.0 | isoTOP-ABPP ratio (reactivity profile), O14980_C34 ([5]; 500 μm in-vitro ramos): 1.0 | isoTOP-ABPP ratio (reactivity profile), O14980_C34 ([5]; 500 μm in-vitro ramos_231): 0.9 and 1.0

O=C(CCl)Nc1cc(C(F)(F)F)cc(C(F)(F)F)c1 [compound 3]
R value (DMSO/fragment) [1]: 5.5 | R value (DMSO/fragment) ([6]; 500 μM, in vitro, MDA-MB-231): 20.0 | R value (DMSO/fragment) ([6]; 500 μM, invitro, ramos): 1.0 | R value (DMSO/fragment) ([2]; in vitro, MDA-MB-231): 3.6 | R value (DMSO/fragment) ([2]; invitro, ramos): 1.8 | R value (DMSO/fragment) [3]: 2.2 | R value (DMSO/fragment) [4]: 17.1 | R value (DMSO/fragment) ([5]; in vitro, MDA-MB-231): 1.4 | R value (DMSO/fragment) ([5]; invitro, ramos): 1.6

COc1ccc2c(c1)CCCN2C(=O)CCl [compound 2]
R value (DMSO/fragment) [1]: 20.0 | R value (DMSO/fragment) ([6]; 500 μM, in vitro, MDA-MB-231): 20.0 | R value (DMSO/fragment) ([2]; invitro, ramos): 5.1 | R value (DMSO/fragment) [3]: 1.4 | R value (DMSO/fragment) [4]: 20.0 | R value (DMSO/fragment) ([5]; in vitro, MDA-MB-231): 2.8 | R value (DMSO/fragment) ([5]; invitro, ramos): 4.6

C=CC(=O)N1CCC(Cc2ccccc2)CC1 [compound 53]
isoTOP-ABPP reactivity profile ratio, Q96GG9_C115 ([1]; in-vitro_ramos): 0.9 | isoTOP-ABPP reactivity profile ratio, Q96GG9_C115 ([1]; in-vitro_ramos_231): 1.0 | isoTOP-ABPP reactivity profile ratio, Q6L8Q7_C108 ([2]; in-vitro_ramos): 1.1 | isoTOP-ABPP reactivity profile ratio, P48735_C308 ([3]; in-vitro_ramos_231): 0.5 | isoTOP-ABPP reactivity profile ratio, P16455_C150 [4]: 1.1 | isoTOP-ABPP reactivity profile ratio, O14980_C34 ([5]; in-vitro_ramos): 1.0 | isoTOP-ABPP reactivity profile ratio, O14980_C34 ([5]; in-vitro_ramos_231): 0.9

C=CC(=O)Nc1cc(F)c(N2CCN(C(=O)OC(C)(C)C)CC2)c(F)c1 [compound 38]
isoTOP-ABPP reactivity ratio, Q96GG9_C115 ([1]; in-vitro_ramos): 1.0 | isoTOP-ABPP reactivity ratio, Q96GG9_C115 ([1]; in-vitro_ramos_231): 1.2 | isoTOP-ABPP reactivity ratio, O75874_C269 ([6]; in-vitro_ramos_231): 0.7 | isoTOP-ABPP reactivity ratio, Q6L8Q7_C108 ([2]; in-vitro_ramos): 6.8 | isoTOP-ABPP reactivity ratio, Q6L8Q7_C108 ([2]; in-vitro_ramos_231): 0.9 | isoTOP-ABPP reactivity ratio, P48735_C308 ([3]; in-vitro_ramos_231): 1.2 | isoTOP-ABPP reactivity ratio, P16455_C150 [4]: 1.8 | isoTOP-ABPP reactivity ratio, O14980_C34 ([5]; in-vitro_ramos): 1.0 | isoTOP-ABPP reactivity ratio, O14980_C34 ([5]; in-vitro_ramos_231): 1.0

O=C(CCl)NC(=O)NC12CC3CC(CC(C3)C1)C2 [compound 12]
isoTOP-ABPP ratio, Q96GG9_C115 [1]: 0.6 | isoTOP-ABPP ratio, Q6L8Q7_C108 ([2]; invitro, ramos): 1.5 | isoTOP-ABPP ratio, P48735_C308 [3]: 1.7 | isoTOP-ABPP ratio, P16455_C150 [4]: 20.0 | isoTOP-ABPP ratio, O14980_C34 ([5]; invitro, 231): 1.2 | isoTOP-ABPP ratio, O14980_C34 ([5]; invitro, ramos): 0.7

C=CC(=O)N(Cc1cccnc1)c1cc(C(F)(F)F)cc(C(F)(F)F)c1 [compound 31]
isoTOP-ABPP reactivity ratio, Q96GG9_C115 ([1]; in-vitro_ramos): 0.9 | isoTOP-ABPP reactivity ratio, O75874_C269 ([6]; in-vitro_ramos): 0.7 | isoTOP-ABPP reactivity ratio, O75874_C269 ([6]; in-vitro_ramos_231): 0.4 | isoTOP-ABPP reactivity ratio, Q6L8Q7_C108 ([2]; in-vitro_ramos_231): 2.0 | isoTOP-ABPP reactivity ratio, P48735_C308 ([3]; in-vitro_ramos): 1.1 | isoTOP-ABPP reactivity ratio, P48735_C308 ([3]; in-vitro_ramos_231): 1.3 | isoTOP-ABPP reactivity ratio, P16455_C150 [4]: 2.8 | isoTOP-ABPP reactivity ratio, O14980_C34 ([5]; in-vitro_ramos): 0.8 | isoTOP-ABPP reactivity ratio, O14980_C34 ([5]; in-vitro_ramos_231): 1.0

Cn1cc(S(=O)(=O)N2CCOCC2)cc1C(=O)NC(=O)CCl [compound 11]
isoTOP-ABPP ratio, Q96GG9_C115 [1]: 0.9 | isoTOP-ABPP ratio, O75874_C269 ([6]; 500 μM, invitro, 231): 1.1 | isoTOP-ABPP ratio, O75874_C269 ([6]; 500 μM, invitro, ramos): 0.7 | isoTOP-ABPP ratio, Q6L8Q7_C108 ([2]; invitro, 231): 4.2 | isoTOP-ABPP ratio, P48735_C308 [3]: 1.1 | isoTOP-ABPP ratio, P16455_C150 [4]: 20.0 | isoTOP-ABPP ratio, O14980_C34 ([5]; invitro, 231): 1.2 | isoTOP-ABPP ratio, O14980_C34 ([5]; invitro, ramos): 1.0

O=C(CCl)Nc1ccc(-c2ccccc2)cc1 [compound 52]
isoTOP-ABPP reactivity profile ratio, Q96GG9_C115 ([1]; in-vitro_ramos): 1.0 | isoTOP-ABPP reactivity profile ratio, Q6L8Q7_C108 ([2]; in-vitro_ramos): 6.8 | isoTOP-ABPP reactivity profile ratio, Q6L8Q7_C108 ([2]; in-vitro_ramos_231): 1.4 | isoTOP-ABPP reactivity profile ratio, P48735_C308 ([3]; in-vitro_ramos_231): 1.1 | isoTOP-ABPP reactivity profile ratio, P16455_C150 [4]: 2.2 | isoTOP-ABPP reactivity profile ratio, O14980_C34 ([5]; in-vitro_ramos): 1.1 | isoTOP-ABPP reactivity profile ratio, O14980_C34 ([5]; in-vitro_ramos_231): 1.0

O=C(CCl)N1CCC(C(O)(c2ccccc2)c2ccccc2)CC1 [compound 20]
isoTOP-ABPP ratio (reactivity profile), Q96GG9_C115 ([1]; 500 μm in-vitro ramos): 1.2 | isoTOP-ABPP ratio (reactivity profile), Q96GG9_C115 ([1]; 500 μm in-vitro ramos_231): 1.2 | R value (DMSO/fragment) ([6]; 25 μM, endogenous IDH1, MDA-MB-231 proteome): 20 | isoTOP-ABPP ratio (reactivity profile), O75874_C269 [6]: 0.6 | isoTOP-ABPP ratio (reactivity profile), Q6L8Q7_C108 ([2]; 500 μm in-vitro ramos_231): 1.6 | isoTOP-ABPP ratio (reactivity profile), P48735_C308 ([3]; 500 μm in-vitro ramos_231): 0.5 | isoTOP-ABPP ratio (reactivity profile), P16455_C150 ([4]; 500 μm in-vitro ramos): 18.3 | isoTOP-ABPP ratio (reactivity profile), O14980_C34 ([5]; 500 μm in-vitro ramos): 1.2 | isoTOP-ABPP ratio (reactivity profile), O14980_C34 ([5]; 500 μm in-vitro ramos_231): 1.0

CCN(CC)c1ccc(S(N)(=O)=O)cc1NC(=O)CCl [compound 30]
isoTOP-ABPP ratio (reactivity profile), Q96GG9_C115 ([1]; 500 μm in-vitro ramos): 0.7 | isoTOP-ABPP reactivity ratio, Q96GG9_C115 ([1]; in-vitro_ramos): 1.1 | isoTOP-ABPP ratio (reactivity profile), O75874_C269 [6]: 0.7 | isoTOP-ABPP ratio (reactivity profile), Q6L8Q7_C108 ([2]; 500 μm in-vitro ramos): 1.1 | isoTOP-ABPP reactivity ratio, Q6L8Q7_C108 ([2]; in-vitro_ramos): 1.6 | isoTOP-ABPP ratio (reactivity profile), P48735_C308 ([3]; 500 μm in-vitro ramos): 0.7 | isoTOP-ABPP reactivity ratio, P16455_C150 [4]: 5.1 | isoTOP-ABPP ratio (reactivity profile), O14980_C34 ([5]; 500 μm in-vitro ramos): 0.7 | isoTOP-ABPP reactivity ratio, O14980_C34 ([5]; in-vitro_ramos): 1.1
